According to US20220041681A1 (MEDIMMUNE LIMITED, priority 2016, published 2022):
In brackets after ≈: the same amount, converted by molar mass. Where two headings read alike, the source gives them in different places. Numbered stars: 1 amine (or outer) side, 2 acyl side, 3 side chain; on linkers, the order of the positions; unused ones are H or OH. Side chains are listed from the residue outwards. Peptide text beside a SMILES is read from it. * marks the point of attachment. γGlu = O=C(O)[C@H](CCC(=O)[*:2])N[*:1]; Palmitoyl = CCCCCCCCCCCCCCCC(=O)*

Columns and labels:
[1] = Stability testing of peptides in plasma; type: in vitro ADME, mouse
Procedure: (§1) Stability testing of peptides in plasma.
(§2) Stock solutions of the peptides of about 200 μmol/L was prepared by weighing solid peptide into a Eppendorf Low Bind Tube and dissolved in DMSO. 10 μL of stock solutions were added to 990 μL of plasma in an Eppendorf Low Bind Tube, resulting in initial concentrations of the peptides in plasma of about 2 μmol/L. The frozen blank plasma from human, rat and mouse had been thawed and heated to a temperature of 37° C. before addition of the stock solution. The spiked plasma samples were gently mixed and allowed to equilibrate for about 5 minutes before start of experiment. The plasma samples were incubated for 48 hours in a GalaxyR CO2 incubator at 37° C. Sampling (30 μL) was performed at 0, 1, 2, 6.5, 17, 24 and 48 hours. The samples were stored at −70° C. until analysis.
(§3) Plasma samples were assayed as follows. The 30 μL plasma samples were protein precipitated with […] of cold ethanol in a 96-well low bind plate (Eppendorf Protein LoBind). After mixing and centrifugation, 100 μl the supernatant was transferred to a new plate and 1 μl was injected onto an analytical column.
(§4) The analysis was performed using a μLC-system (LC Exigent μLC) coupled to a medium high resolution mass spectrometer (Perkin Elmer PenTOF) with positive electrospray ionisation. The analytical column was a 5 cm, 1 mm Agilent Poroshell (custom made) C18-column with a particle size of 2.7 μm. Flow: 0.1 ml/min using a slow reversed phase gradient. Mobile phases used were acetonitrile and water containing 0.1% formic acid.
The resulting data were manually evaluated for the following degradation products: +1 product (acid) and the DPP IV-cleavage product. Products with +1 mass may arise from deamidation at amide groups of glutamine or at the C-terminus. Cleavage products arise from the action of the protease DPP IV in plasma. Both the degradation of the peptides and formation of peptide products were reported in percentage of the initial peptide concentration. Peaks were integrated and % remaining peptide was calculated: (peak area/peak area 0H)*100. […]

[2] = type: in vitro ADME, human
Procedure: as §1, §2, §3, §4
The resulting data were manually evaluated for the following degradation products: +1 product (acid) and the DPP IV-cleavage product. Products with +1 mass may arise from deamidation at amide groups of glutamine or at the C-terminus. Cleavage products arise from the action of the protease DPP IV in plasma. Both the degradation of the peptides and formation of peptide products were reported in percentage of the initial peptide concentration. Peaks were integrated and % remaining peptide was calculated: (peak area/peak area 0H)*100. Levels of deamidation and DPP IV cleavage were low for G797 and G933.

human serum albumin = human serum albumin (Homo sapiens, UniProt P02768); experiment: Fraction of free peptide calculated from variation in cAMP generation with HSA concentration; details: calculated from cAMP generation vs HSA concentration
Chain of human serum albumin (P02768 25-609): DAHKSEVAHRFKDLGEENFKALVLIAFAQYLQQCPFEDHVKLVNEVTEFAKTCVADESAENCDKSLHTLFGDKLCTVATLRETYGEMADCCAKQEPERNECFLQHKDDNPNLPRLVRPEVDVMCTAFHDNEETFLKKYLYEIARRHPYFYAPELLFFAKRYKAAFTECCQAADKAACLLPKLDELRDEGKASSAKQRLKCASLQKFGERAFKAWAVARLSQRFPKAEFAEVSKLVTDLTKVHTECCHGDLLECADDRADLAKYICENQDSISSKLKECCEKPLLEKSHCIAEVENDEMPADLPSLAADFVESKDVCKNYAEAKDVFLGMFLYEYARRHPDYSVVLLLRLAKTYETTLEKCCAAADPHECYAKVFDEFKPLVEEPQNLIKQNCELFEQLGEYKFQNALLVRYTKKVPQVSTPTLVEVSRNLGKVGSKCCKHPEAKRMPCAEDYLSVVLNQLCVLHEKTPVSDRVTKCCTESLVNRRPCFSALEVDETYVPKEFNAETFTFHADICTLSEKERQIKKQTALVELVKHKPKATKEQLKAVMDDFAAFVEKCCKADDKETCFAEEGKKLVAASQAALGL
Excerpt: Data was transformed to % Delta F as described in manufacturer's guidelines and analysed by 4-parameter logistic fit to determine EC50 values. […] To compare the balance of activities at the GLP1R and GlucR between different peptides and across different conditions, these can be correlated using the calculation below, where the EC50's are related to those of the natural ligands.

Rat GlucR = target: T1, Rat GlucR (Rattus norvegicus, UniProt P30082); experiment: cAMP assay in presence of serum albumin (assay 2), 3.2% rat serum albumin; type: cell-based; details: relative potencies vs native ligands
T1 construct: expressed in transfected cells
T1 sequence (P30082 27-485): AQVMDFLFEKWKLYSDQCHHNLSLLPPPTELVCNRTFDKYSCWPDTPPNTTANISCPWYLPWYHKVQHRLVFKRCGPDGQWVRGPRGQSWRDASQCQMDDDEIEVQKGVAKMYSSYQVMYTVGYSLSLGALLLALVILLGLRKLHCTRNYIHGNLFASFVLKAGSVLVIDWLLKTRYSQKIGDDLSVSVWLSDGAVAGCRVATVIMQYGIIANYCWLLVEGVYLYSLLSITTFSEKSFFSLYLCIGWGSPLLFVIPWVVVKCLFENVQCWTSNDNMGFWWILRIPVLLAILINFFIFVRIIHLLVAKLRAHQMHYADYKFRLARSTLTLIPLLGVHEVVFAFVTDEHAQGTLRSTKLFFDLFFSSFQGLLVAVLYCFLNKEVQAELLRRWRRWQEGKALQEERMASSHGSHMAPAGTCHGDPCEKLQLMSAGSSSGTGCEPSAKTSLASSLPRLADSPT
Procedure: CHO cells with stable recombinant expression of the human, mouse or rat GlucR or GLP-t receptor were cultured in DMEM 10% FBS and geneticin (100 μg/mil). Cryopreserved cell stocks were prepared in 1× cell freezing medium-DMSO serum free (Sigma Aldrich) at 2×10^7/vial and stored at […]. […] Peptides were serially diluted in DMSO and then diluted 100 fold into DMEM containing serum albumin at stated final concentration. […] Cells were added to the assay plates and incubated for 30 min at room temperature. Following incubation the assay was stopped and cAMP levels measured using the HTRF® dynamic d2 cAMP assay kit available from CisBio Bioassays, as per the manufacturer's guidelines. Plates were read on Perkin Elmer ENVISION® fluorescence plate readers. Human and rat serum albumin were purchased from Sigma Aldrich and mouse serum albumin from Equitech Bio Ltd.

[3] = Peptide solubility in buffers (A280); type: physicochemical; details: target 1 mg/ml, read-out: Conc. (A280), solubility
Excerpt: G7310 was soluble in a pH range of 4.5 to 8.0.

[4] = Peptide solubility in isotonic formulations (DF, BF1, BF2); details: formulation DF (DF/BF1 for G797)
Procedure: Formulations. Peptide solubility was assessed in three different isotonic formulations: • 1. […] Final formulation pH=7.2 • 2. Back up formulation 1 (BF1)=0.05M Tris, 50 nM Arginine/Proline. Final formulation pH=8.0 • 3. […] Final formulation pH=7.0

[5] = tested on: diet induced obesity (DIO) mouse model; experiment: Diet induced obesity (DIO) mouse model, study A; type: in vivo; details: for BeHy / Insulin / Plasma NEFA: day 14
Excerpt: Female C57/Bl6JHsdOla (obtained from Harlan Laboratories. UK) were started on a high fat diet of D12492 (Research Diets, NJ, USA) and a chocolate confection, delicato ball (Delicata Bakverk, Sweden) at 9-11 weeks of age, and were maintained on the diet for 16 weeks prior to arrival to the animal facility, during a three week acclimation period and during drug treatment, caloric content of the two components of the diet is shown in Table 11. The mice were divided into 9 groups (n=5-6), and treatment was started at 29 weeks of age.
The body weight of the animals was monitored daily throughout die dosing period. At day 14, blood samples for the measurement of plasma glucose and insulin from conscious mice were obtained after a 4-hour fasting period. Mice were then anaesthetized using isofluorane and terminal blood was collected from the capillary bed behind the eye. The following parameters were measured: blood chemistry measurements of triglycerides, total cholesterol, non-esterified fatty acids (NEFA), beta-hydroxybutyrate and fibroblast growth factor 21 (FGF21) (Tables 14 and 15 below).

[6] = type: in vitro ADME, rat
Procedure: as §1, §2
Plasma samples were assayed as follows. The 30 μL plasma samples were protein precipitated with […] of cold ethanol in a 96-well low bind plate (Eppendorf Protein LoBind). After mixing and centrifugation, 100 μl the supernatant was transferred to a new plate and 1 μl was injected onto an analytical column. […]
The resulting data were manually evaluated for the following degradation products: +1 product (acid) and the DPP IV-cleavage product. […] Peaks were integrated and % remaining peptide was calculated: (peak area/peak area 0H)*100. […]

CCCCCCCCCCCCCCCC(=O)N[C@@H](CCC(=O)NCCCC[C@H](NC(=O)[C@H](CCCCN)NC(=O)[C@H](CO)NC(=O)[C@H](Cc1ccc(O)cc1)NC(=O)[C@H](CC(=O)O)NC(=O)[C@H](CO)NC(=O)[C@@H](NC(=O)[C@H](Cc1ccccc1)NC(=O)[C@@H](NC(=O)CNC(=O)[C@H](CCC(N)=O)NC(=O)[C@H](CO)NC(=O)[C@@H](N)Cc1c[nH]cn1)[C@@H](C)O)[C@@H](C)O)C(=O)N[C@@H](CC(C)C)C(=O)N[C@@H](CC(=O)O)C(=O)N[C@@H](CO)C(=O)N[C@@H](CCC(=O)O)C(=O)N[C@@H](CCCNC(=N)N)C(=O)N[C@@H](C)C(=O)N[C@@H](CCCNC(=N)N)C(=O)N[C@@H](CC(=O)O)C(=O)N[C@@H](Cc1ccccc1)C(=O)N[C@H](C(=O)N[C@@H](C)C(=O)N[C@@H](Cc1c[nH]c2ccccc12)C(=O)N[C@@H](CC(C)C)C(=O)N[C@H](C(=O)N[C@@H](C)C(=O)NCC(=O)NCC(N)=O)C(C)C)C(C)C)C(=O)O [Peptide G730] (H-HSQGTFTSDYSKK([γGlu-Palmitoyl])LDSERARDFVAWLVAGG-NH2; N-terminus assumed)
% +1 prod [1]: 15% | % stable peptide ([1]; mouse plasma, 37° C., 24 h): 65% | % +1 prod [2]: <1% | % DPP cleaved product/+1 DPP cleaved product [2]: <1% | free peptide at 4.4% HSA (human serum albumin): 0.85% | Rat GlucR/GLP1R Ratio (Rat GlucR): 0.05 | solubility ([3]; Tris buffer, Tris pH 7.5, 100 mM): 830 µg/mL (≈ 225 µM) | solubility ([3]; Tris buffer, Tris pH 8.0, 100 mM): 1100 µg/mL (≈ 298 µM) | solubility ([3]; glutamate buffer, Glutamate pH 4.5, 100 mM): 830 µg/mL (≈ 225 µM) | solubility ([3]; phosphate buffer, Phosphate pH 6, 100 mM): 140 µg/mL (≈ 37.9 µM) | solubility ([3]; phosphate buffer, Phosphate pH 6.5, 100 mM): 830 µg/mL (≈ 225 µM) | solubility ([3]; phosphate buffer, Phosphate pH 7.5, 100 mM): 850 µg/mL (≈ 230 µM) | Formulation Concentration [4]: 5 mg/mL | BeHy ([5]; 10 nmol/kg): 426 u mol/l | Insulin ([5]; 10 nmol/kg): 0.4 nM | Plasma NEFA ([5]; 10 nmol/kg): 0.28 Mm | BeHy ([5]; 20 nmol/kg): 750 u mol/l | Insulin ([5]; 20 nmol/kg): 0.2 nM | Plasma NEFA ([5]; 20 nmol/kg): 0.26 Mm | BeHy ([5]; 50 nmol/kg): 1477 u mol/l | Insulin ([5]; 50 nmol/kg): 0.3 nM | Plasma NEFA ([5]; 50 nmol/kg): 0.32 Mm | body weight over the 14 day dosing period ([5]; study A, in words): dose dependent and continuous weight loss | glucose levels at day 14 ([5]; study A, in words): dose-dependent reduction in glucose levels | % DPP cleaved product/+1 DPP cleaved product [6]: 2%
